Laboratory results taken from PMC8219897 (Water Research X, 2021).
≈ marks a conversion by molar mass, not a printed value. Read-outs that look alike come from different tables or passages of the source. Blank lines part the entries; values can stand above or below the molecule they belong to.

What was measured:
[1] = test system: estrogen-related receptor; conditions: recombined yeast strains; ref Li et al. (2010); cited from earlier work
[2] = biological target: T1, human estrogen receptor alpha (ERα) (Homo sapiens, UniProt P03372); experiment: Yeast estrogen screen; type: cell-based; conditions: for Estrogenic effects in single testing (in words): single compounds, Figure SI 5B
T1 sequence (P03372 1-595): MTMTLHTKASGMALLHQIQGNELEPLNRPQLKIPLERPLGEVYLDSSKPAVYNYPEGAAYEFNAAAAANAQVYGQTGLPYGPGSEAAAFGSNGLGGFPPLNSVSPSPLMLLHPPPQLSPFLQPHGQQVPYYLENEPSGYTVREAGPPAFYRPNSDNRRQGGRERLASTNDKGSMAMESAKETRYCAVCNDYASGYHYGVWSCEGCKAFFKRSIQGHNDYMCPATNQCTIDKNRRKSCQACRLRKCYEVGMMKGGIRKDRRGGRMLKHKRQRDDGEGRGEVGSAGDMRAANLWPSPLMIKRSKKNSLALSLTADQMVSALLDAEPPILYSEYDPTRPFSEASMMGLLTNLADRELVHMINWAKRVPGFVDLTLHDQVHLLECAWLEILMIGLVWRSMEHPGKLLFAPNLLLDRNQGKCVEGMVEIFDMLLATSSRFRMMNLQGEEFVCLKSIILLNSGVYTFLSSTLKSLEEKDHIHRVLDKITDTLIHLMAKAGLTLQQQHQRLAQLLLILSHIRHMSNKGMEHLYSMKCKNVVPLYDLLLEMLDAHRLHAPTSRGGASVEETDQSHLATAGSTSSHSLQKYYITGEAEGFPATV

[3] = test system: human placental JEG-3 cells; conditions: read-out: EC50, cytotoxic effects, ref Perez-Albaladejo et al. (2019); cited from earlier work
aquatic life = conditions: proposed by ECHA; ref ECHA; cited from earlier work
Aliivibrio fischeri = type: cell-based; conditions: present study
P450 aromatase = conditions: JEG-3 cells, at 20 µM; ref Perez-Albaladejo et al. (2019); cited from earlier work
[4] = muscle, liver and gill tissue of wild fish, Panlong River; ref Wang et al. 2016; cited from earlier work
[5] = aqueous solution, pseudo-first-order kinetic; ref Kovacic et al. 2019; cited from earlier work
ERα = conditions: read-out: IC50, competitive binding to ERα; ref Nakagawa and Suzuki 2001; cited from earlier work
MCF-7 cells = conditions: read-out: EC50, estrogen-like effects, ref Kitamura et al. 2005; cited from earlier work
NIH3T3 cells = conditions: read-out: EC50, anti-androgenic effects, ref Kitamura et al. 2005; cited from earlier work
zebrafish embryos = conditions: ref McCormick et al. (2011); cited from earlier work
[6] = leachates of UV irradiated coating B

Structure (SMILES): CC(C)(C)c1ccccc1O [2-tert-butylphenol]
Effect on estrogen-related receptor gamma [1]: inverse agonistic effects

Structure (SMILES): Oc1ccccc1-c1ccccc1 [2PP, 2-phenylphenol]
Estrogenic effects in single testing (in words) [2]: showed estrogenic potential

Structure (SMILES): CC(C)(c1ccccc1)c1ccc(O)cc1 [4CP, 4-cumylphenol]
EC50 [3]: 65 µM | Predicted no effect concentration (PNEC), freshwater (aquatic life): 14.2 µg/L | Predicted no effect concentration (PNEC), freshwater sediments (aquatic life): 3.58 µg/g dry weight | Potency compared to BPA in the luminescent bacteria assay (Aliivibrio fischeri): more potent | Increase of P450 aromatase activity (P450 aromatase): 1.3 fold | EC50 [2]: 0.212 µM | Mean contribution to estrogenicity of the quantified substances (toxic units) [2, 6]: 1% | Bioconcentration factor (BCF) [4]: up to 10

Structure (SMILES): CC(C)(c1ccc(O)cc1)c1ccc(O)cc1 [BPA, bisphenol A]
Predicted no effect concentration (PNEC), freshwater (aquatic life): 18 µg/L | Predicted no effect concentration (PNEC), freshwater sediments (aquatic life): 1.2 µg/g dry weight | Half-life time of degradation under UV irradiation [5]: about 6 h | Mean contribution to estrogenicity of the quantified substances (toxic units) ([2]; leachates of UV irradiated coating A): 3% | Mean contribution to estrogenicity of the quantified substances (toxic units) [2, 6]: 16% | IC50 (ERα): 10 µM

EC50 ([2]; read-out: EC50, yeast estrogen screen, single compound, present results): 31 µM | EC50, yeast estrogen screen ([2]; single compound, present results): 7.5 µg/mL (≈ 30.7 µM) | Estrogenic effects in single testing (in words) [2]: showed estrogenic potential
Structure (SMILES): CC(C)(c1ccc(O)cc1)c1ccc(O)c(O)c1 [BPA-I10, 5-hydroxybisphenol A]
EC50 (MCF-7 cells): 1.8 µM | IC50 (ERα): 50 µM | EC50 (NIH3T3 cells): 14 µM

Structure (SMILES): COc1ccc(C(C)(C)c2ccc(O)cc2)cc1 [BPA-I11, 4-[1-(4-methoxyphenyl)-1-methylethyl]phenol]
Half maximal lethal concentration (zebrafish embryos): up to 0.66 mg/l | Potency compared to BPA in the luminescent bacteria assay (Aliivibrio fischeri): more potent | EC50 [2]: 0.666 µM | Mean contribution to estrogenicity of the quantified substances (toxic units) [2, 6]: 2%

Estrogenic effects in single testing (in words) [2]: not estrogenic
Structure (SMILES): CC(C)(c1ccc(OCC(O)CO)cc1)c1ccc(OCC(O)CO)cc1 (stereo not drawn) [Bis-HPPP, bisphenol A bis(2,3-dihydroxypropyl) ether]
